Here are results for three molecules from DBAASP.

Some test systems named below: Escherichia coli; Staphylococcus aureus; Listeria monocytogenes; Bacillus subtilis 168; Escherichia coli K-12; Escherichia coli O157.
Holding throughout (experiment): ≥ marks a high value that may be exact or a test limit, other limits are often not marked, values filed in µg/mL are converted to µM
The test system of assay [1] is Staphylococcus aureus USA 300.
Assay [2] has as its system Pseudomonas aeruginosa BNCC 125486.
The subject of assay [3] is Escherichia coli BNCC 133264.
Assay [4] has as its system Pseudomonas aeruginosa PAO1.
For assay [5], the system named is Staphylococcus aureus BNCC 186335.
In assay [6] the test system is Bacillus cereus ATCC 11778.
In assay [7] the test system is Salmonella enterica subsp. arizonae ATCC 13314.
Assay [8] concerns Escherichia coli ATCC 35218.
The test system of assay [9] is Micrococcus luteus ATCC 9341.
Assay [10] relates to Streptococcus pyogenes ATCC 19615.
Assay [11] concerns Enterococcus faecalis ATCC 29212.
The test system of assay [12] is Staphylococcus epidermidis ATCC 12228.
Assay [13] deals with Pseudomonas aeruginosa ATCC 9027.
The subject of assay [14] is Escherichia coli ATCC 25922.
In assay [15] the test system is Candida albicans ATCC 90028.
Assay [16] deals with Acinetobacter baumannii NM109.
Assay [17] has as its system Cutibacterium acnes ATCC 29903.
The test system of assay [18] is Cutibacterium acnes ATCC 50247.
Assay [19] deals with Acinetobacter baumannii NM75.
In assay [20] the test system is Cutibacterium acnes ATCC 32548.
Assay [21] relates to Cutibacterium acnes ATCC 33257.
The subject of assay [22] is Acinetobacter baumannii NM8.
For assay [23], the system named is Cutibacterium acnes ATCC 11828.
For assay [24], the system named is Acinetobacter baumannii NM35.
The subject of assay [25] is Cutibacterium acnes ATCC 31766.
Assay [26] relates to Cutibacterium acnes ATCC 18380.
The test system of assay [27] is Staphylococcus aureus ATCC 25923.
For assay [28], the system named is Escherichia coli ATCC 25726.
The subject of assay [29] is Cutibacterium acnes ATCC 15725.
The subject of assay [30] is Acinetobacter baumannii NM124.

≈ marks a conversion by molar mass, not a printed value. Bounds are passed on as bounds.

As usually defined, the MIC is the smallest concentration in the dilution series that meets the test's criterion for growth inhibition. The low end stands for inhibition by little substance, the high end for a need for much substance. Regarding `CC[C@H](C)[C@H](NC(=O)[C@H](CCCCN)NC(=O)[C@H](CCCN=C(N)N)NC(=O)[C@@H](NC(=O)[C@H](CC(C)C)NC(=O)[C@H](CCCCN)NC(=O)[C@H](CC(C)C)NC(=O)[C@@H](NC(=O)[C@H](CCCCN)NC(=O)CNC(=O)[C@H](Cc1ccccc1)NC(=O)[C@@H](N)Cc1ccccc1)C(C)C)[C@@H](C)CC)C(=O)N[C@@H](Cc1ccccc1)C(N)=O` [FFGKVLKLIRKIF], the MIC in assay [1] is 3.1 µM (≈ 4.99 µg/mL); in assay [2], at least 79.5 µM; in assay [3], at least 79.5 µM; with Escherichia coli, above 79.5 µM; against Staphylococcus aureus, 39.8 µM (≈ 64 µg/mL); against Listeria monocytogenes it was 4.97 µM (≈ 8 µg/mL). Moreover, the MIC in assay [4] was above 100 µM; in [5], at least 39.8 µM; in the assay with Bacillus subtilis 168, at least 100 µM; against Escherichia coli K-12 it was at least 100 µM.

With `CC(C)C[C@H](NC(=O)[C@H](CC(C)C)NC(=O)[C@H](CCC(N)=O)NC(=O)[C@H](Cc1ccc(O)cc1)NC(=O)[C@H](CCCN=C(N)N)NC(=O)CNC(=O)[C@H](C)NC(=O)[C@H](C)NC(=O)[C@@H](NC(=O)[C@H](CO)NC(=O)[C@H](Cc1ccc(O)cc1)NC(=O)[C@@H](NC(=O)[C@H](CCCCN)NC(=O)[C@H](Cc1ccc(O)cc1)NC(=O)[C@H](CCCN=C(N)N)NC(=O)[C@@H]1CCCN1C(=O)[C@H](CC(C)C)NC(=O)[C@H](Cc1ccc(O)cc1)NC(=O)[C@@H](NC(=O)[C@@H](N)CCCCN)C(C)C)C(C)C)[C@@H](C)O)C(N)=O` [KVYLPRYKVYSTAAGRYQLL], the MIC in assay [6] is at least 150 µM; in assay [7], at least 150 µM; in [8], at least 150 µM; in assay [9], at least 150 µM; in assay [10] it was at least 150 µM; in assay [11], above 150 µM. The minimum inhibitory concentration (MIC) in assay [12] is above 150 µM; against Escherichia coli O157, at least 150 µM; in assay [13], above 150 µM; in [14], above 150 µM.

For the molecule `CC[C@H](C)[C@H](NC(=O)[C@@H](NC(=O)CN)C(C)C)C(=O)N[C@@H](CCCCN)C(=O)N[C@@H](CO)C(=O)N[C@H](C(=O)N[C@@H](CC(C)C)C(=O)N[C@@H](CCCCN)C(=O)NCC(=O)N[C@H](C(=O)N[C@@H](C)C(=O)N[C@@H](CCCCN)C(=O)N[C@H](C(=O)N[C@H](C(=O)N[C@@H](C)C(=O)N[C@@H](CC(C)C)C(=O)NCC(=O)N[C@@H](CCSC)C(=O)N[C@@H](CC(C)C)C(N)=O)C(C)C)[C@@H](C)O)C(C)C)C(C)C` [GVIKSVLKGVAKTVALGML], the MIC in [15] was at least 50 µM; in [16], 12.5 µM (≈ 23.5 µg/mL); in [17], 25 µM (≈ 47.1 µg/mL); in assay [18], 6 µM (≈ 11.3 µg/mL); in assay [19] it was 12.5 µM (≈ 23.5 µg/mL); in assay [20], 12.5 µM (≈ 23.5 µg/mL). Moreover, the MIC was 12.5 µM (≈ 23.5 µg/mL) in [21]; 6 µM (≈ 11.3 µg/mL) in assay [22]; 12.5 µM (≈ 23.5 µg/mL) in assay [23]; 6 µM (≈ 11.3 µg/mL) in assay [24]; 6 µM (≈ 11.3 µg/mL) in [25]; at least 50 µM in assay [26]. The MIC in [27], in [28], in assay [29] and in assay [30] was 12.5 µM (≈ 23.5 µg/mL) throughout.
